The values that follow come from paper PMC9321663, “The DevTox Germ Layer Reporter Platform: An Assay Adaptation of the Human Pluripotent Stem Cell Test” (Toxics, 2022).

Data set [1] concerns SOX17 (endoderm marker) in RUES2-GLR cells. Description: DevTox GLR-Endo assay: decrease in percent SOX17-positive cells (AEID 3094, Sox17_dn). Particulars: for AC50 / Emax: Homo sapiens; for AC50: read-out: ga (winning model), tcpl plot AEID3094, gain parameter of winning curve fit (log concentration, µM axis), hit calls only (converted); for Hit Call: Table S2, SOX17-positive cells, cutoff 3*bmad; for HIT−CALL: tcpl plot AEID3094, COFF 20.3; for DevTox ACC: Table S2, percent SOX17-positive cells; for DevTox ACC / DevTox-GLR Endo ACC: 48 h exposure; for DevTox-GLR Endo ACC: activity concentration at cutoff, SOX17-positive cells. The procedure, abridged: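 RUES2-GLR cells under endoderm differentiation exposed to test chemicals for 48 h in total, with 0.2% DMSO solvent control and SB431542 (1 µM) as developmental-toxicant control. Endpoints: decrease in total cell count and in percent SOX17-positive cells; n = 4 biological replicates minimum.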

For data set [2], the system named is o/c ratio in H9 embryonic stem cells. The conditions noted are these: Teratogen Index, o/c ratio; cited from earlier work.
Data set [3] concerns SOX17 (endoderm marker) in RUES2-GLR cells. Put plainly: DevTox GLR-Endo assay: increase in percent SOX17-positive cells (AEID 3093, Sox17_up). Type of data set: cell-based, human. Particulars: for Emax: Homo sapiens; for HIT−CALL: tcpl plot AEID3093, COFF 20.3. The method, then:
(§1) The total test chemical incubation period was 48 h.
(§2) (Supplementary Materials).

The next data set concerns RUES2-GLR cells. Put plainly: DevTox GLR-Endo assay: decrease in total cell count, cytotoxicity (AEID 3098, CellCount_dn). Particulars: for Emax: Homo sapiens, read-out: Cell Count % Max Inhibition.
The subject of data set [4] is SOX2 (ectoderm and pluripotency marker) in RUES2-GLR cells. Put plainly: DevTox GLR-Endo assay: increase in percent SOX2-positive cells (AEID 3095, Sox2_up). Particulars: for AC50 / Emax: Homo sapiens; for AC50: read-out: ga (winning model); for Emax: read-out: tp (winning model); for MAX_MEAN: tcpl plot AEID3095, maximum mean response; for MAX_MED: tcpl plot AEID3095, maximum median response.

The conditions of data set [5]: cited from earlier work; for Classification: developmental toxicant classification (Teratogen / Non-Teratogen) of reference and training chemicals, ref DOI per chemical: 10.1093/toxsci/kft239, 10.1093/toxsci/kfaa014, 10.1177/026119290203000204, 10.1038/s41598-020-59542-x; for DT Class.: developmental toxicant classification, chemicals common with quickPredict; for Development Toxicant Classification: Table S2.

Data set [6] relates to BRA (mesoderm marker) in RUES2-GLR cells. Put plainly: DevTox GLR-Endo assay: increase in percent BRA-positive cells (AEID 3096, Bra_up). Particulars: for HIT−CALL: tcpl plot AEID3096, COFF 0.774; for MAX_MEAN: tcpl plot AEID3096, maximum mean response; for MAX_MED: tcpl plot AEID3096, maximum median response. The format is cell-based, human. The procedure:
as §1, §2

[7] abbreviates: tcpl plot AEID3093, maximum mean response, read-out: MAX_MEAN.
The mark [8] stands for this setting: tcpl plot AEID3093, maximum median response, read-out: MAX_MED.
Setting [9] is: read-out: DevTox % Max Inhibition.

Structures are written as SMILES. Read-outs that look alike come from different tables or passages of the source.

Regarding `CCCCc1oc2ccccc2c1C(=O)c1cc(I)c(OCCN(CC)CC)c(I)c1` [Amiodarone], in data set [1], the AC50 was 17 µM, the “Hit Call” value is reported as “Positive” and the “HIT−CALL” value stood at 1. Moreover, the “quickPredict TI” value in data set [2] was 5.1 µM. The Emax in data set [3] (setting [7]) was found to be 6.18%. The Emax in data set [3] (setting [8]) stood at 3.59%. For the same compound, in data set [3], the “HIT−CALL” value was found to be 0. Also, in the data set on RUES2-GLR cells, the Emax was 97.1%. In data set [4], the AC50 is 11.7 µM, the Emax was 1.23%, the MAX_MEAN is 2.82 Percent Activity and the MAX_MED is recorded as 2.22 Percent Activity. In data set [5], the Classification entry was “Teratogen” and the “DT Class.” value is “Pos”.

`CO[C@H]1/C=C/O[C@@]2(C)Oc3c(C)c(O)c4c(O)c(c(/C=N/N5CCN(C)CC5)c(O)c4c3C2=O)NC(=O)/C(C)=C\C=C\[C@H](C)[C@H](O)[C@@H](C)[C@@H](O)[C@@H](C)[C@H](OC(C)=O)[C@@H]1C` [Rifampicin]: the Emax in data set [1] (setting [9]) came out at 101%. Besides, the Emax in data set [1] (read-out: MAX_MEAN) was found to be 102%. Also, the Emax in data set [1] (read-out: MAX_MED) stood at 101%. Also, in data set [1], the AC50 was 67.6 µM, the “Hit Call” value is given as “Positive”, the “DevTox ACC” value came to 37.8542 µM and the “DevTox-GLR Endo ACC” value is 37.85 µM. Moreover, the “HIT−CALL” value in data set [1] is 1. Further, the Emax in data set [1] (read-out: tp (winning model)) was 108%. Moreover, the “quickPredict TI” value in data set [2] is on record as 2.46 µM. Also, the Emax in data set [3] (setting [7]) was 7.3%. Moreover, in data set [3] (setting [8]), the Emax was 7.36%. In addition, in data set [3], the “HIT−CALL” value amounted to 0. For the same compound, the Emax with RUES2-GLR cells came out at 92.4%. Further, in the data set on RUES2-GLR cells (human, 48 h), the “Cell Count ACC” value stood at 18.1066 µM and the “DevTox-GLR Endo CC” value is 18.11 µM. Besides, in data set [4], the MAX_MEAN was found to be 0.548 Percent Activity and the MAX_MED stood at 0.542 Percent Activity. In addition, in data set [5], the “Development Toxicant Classification” value is reported as “Positive”, the Classification result is on record as “Teratogen” and the “DT Class.” value is recorded as “Pos”.

`CCCCC(CC)COC(=O)c1ccccc1C(=O)O` (stereo not drawn) [MEHP]: the “Hit Call” value in data set [1] was “Positive”. Also, the “DevTox % Max Inhibition” value in data set [1] (Table S2, percent SOX17-positive cells relative to DMSO) was 67.6802%. In data set [1], the “DevTox ACC” value is 76.3285 µM. In addition, the “DevTox-GLR Endo ACC” value in data set [1] stood at 76.33 µM. The “HIT−CALL” value was 1 in data set [1], 0 in data set [3] and 0 in data set [6]. Also, the “ga (winning model)” value in data set [1] (tcpl plot AEID3094, gain parameter of winning curve fit (log concentration, µM axis), hit calls only) is on record as 2.11. In addition, the MAX_MEAN stood at 65.4 Percent Activity in data set [1] (tcpl plot AEID3094, maximum mean response); 6.64 Percent Activity in data set [3] (tcpl plot AEID3093, maximum mean response); 1.95 Percent Activity in data set [6]; 1.85 Percent Activity in data set [4]. Also, the MAX_MED in data set [1] (tcpl plot AEID3094, maximum median response) turned out to be 67.7 Percent Activity; in data set [3] (tcpl plot AEID3093, maximum median response) it was 12.4 Percent Activity; in data set [6] it was 1.69 Percent Activity; in data set [4] it was 1.77 Percent Activity. For the same compound, the “tp (winning model)” value in data set [1] (tcpl plot AEID3094, top of winning curve fit (Hill or gain-loss), hit calls only) was 89.3. In data set [2], the “quickPredict TI” value was 167 µM. The “Cell Count ACC” value in the data set with RUES2-GLR cells came out at 61.5464 µM. For the same compound, the “DevTox-GLR Endo CC” value in the data set with RUES2-GLR cells came out at 61.55 µM. Moreover, the “Cell Count % Max Inhibition” value in the data set with RUES2-GLR cells (Table S2, cell count relative to DMSO) is recorded as 76.1511%.

With `CC[C@H](C)C(=O)O[C@H]1C[C@@H](C)C=C2C=C[C@H](C)[C@H](CC[C@@H]3C[C@@H](O)CC(=O)O3)[C@H]21` [Lovastatin], in data set [1] (setting [9]), the Emax is 102%. Further, the Emax in data set [1] (read-out: MAX_MEAN) stood at 102%. Also, the Emax in data set [1] (read-out: MAX_MED) is 102%. In data set [1], the AC50 was 11.2 µM, the “Hit Call” value is given as “Positive”, the “DevTox ACC” value is listed as 0.9345 µM and the “DevTox-GLR Endo ACC” value is on record as 0.93 µM. Also, the “HIT−CALL” value in data set [1] came out at 1. For the same compound, in data set [1] (read-out: tp (winning model)), the Emax worked out at 123%. For the same compound, in data set [2], the “quickPredict TI” value is recorded as 5.1 µM. The Emax in data set [3] (setting [7]) was -9.76%. Also, the Emax in data set [3] (setting [8]) was -10.1%. The “HIT−CALL” value in data set [3] was found to be 0. For the same compound, the Emax in the data set with RUES2-GLR cells was 95.4%. In the data set with RUES2-GLR cells (human, 48 h), the “Cell Count ACC” value is reported as 0.7145 µM and the “DevTox-GLR Endo CC” value was determined as 0.71 µM. In addition, in data set [4], the AC50 was 36.3 µM, the Emax was determined as 13.5%, the MAX_MEAN came out at 21.1 Percent Activity and the MAX_MED stood at 14.8 Percent Activity. Besides, in data set [5], the “Development Toxicant Classification” value is “Positive”, the Classification result was “Teratogen” and the “DT Class.” value is “Pos”.

On to `Nc1ccn([C@@H]2O[C@H](CO)[C@@H](O)[C@@H]2O)c(=O)n1` [Cytarabine], for which the Emax in data set [1] (setting [9]) turned out to be 102%. In addition, in data set [1] (read-out: MAX_MEAN), the Emax came to 102%. In data set [1] (read-out: MAX_MED), the Emax worked out at 102%. Further, in data set [1], the AC50 was 0.557 µM, the “Hit Call” value is listed as “Positive”, the “DevTox ACC” value turned out to be 0.4557 µM and the “DevTox-GLR Endo ACC” value is 0.46 µM. Moreover, the “HIT−CALL” value in data set [1] is recorded as 1. For the same compound, the Emax in data set [1] (read-out: tp (winning model)) is 102%. In data set [2], the “quickPredict TI” value is listed as 0.054 µM. In addition, the Emax in data set [3] (setting [7]) worked out at 12.2%. In addition, the Emax in data set [3] (setting [8]) worked out at 12.7%. Besides, the “HIT−CALL” value in data set [3] is given as 0. In the data set on RUES2-GLR cells, the “effect on cell count (in words)” value is listed as “significant decreases in cell count” and the Emax stood at 86.7%. For the same compound, in the data set with RUES2-GLR cells (human, 48 h), the “Cell Count ACC” value worked out at 0.05231 µM and the “DevTox-GLR Endo CC” value is 0.05 µM. Also, in data set [4], the AC50 was 0.582 µM, the Emax came to 2.27%, the MAX_MEAN is on record as 2.89 Percent Activity and the MAX_MED is 2.91 Percent Activity. Besides, in data set [5], the Classification entry is listed as “Teratogen” and the “DT Class.” value is reported as “Pos”.

For `CN(C)CCOC(c1ccccc1)c1ccccc1` [Diphenhydramine], the results for the AC50 in data set [1] and in data set [4] were 61.7 µM and 631 µM, respectively. Moreover, the Emax in data set [1] (read-out: tp (winning model)) is 117%; in data set [3] (setting [7]) it was -0.267%; in data set [3] (setting [8]), -1.82%; in the data set on RUES2-GLR cells, 78.9%; in data set [4] it was 2.12%. For the same compound, in data set [1], the “Hit Call” value is “Positive”. In addition, the “HIT−CALL” value in data set [1] turned out to be 1; in data set [3] it was 0; in data set [6], 1. Besides, the “quickPredict TI” value in data set [2] is 0.588 µM. Further, the MAX_MEAN came to 1.61 Percent Activity in data set [6] and 2.92 Percent Activity in data set [4]. The MAX_MED stood at 1.58 Percent Activity in data set [6] and 1.57 Percent Activity in data set [4].

As for `COc1ccc2c(c1)c(CC(=O)O)c(C)n2C(=O)c1ccc(Cl)cc1` [Indomethacin], the Emax was 101% in data set [1] (setting [9]); 100% in data set [1] (read-out: MAX_MEAN); 101% in data set [1] (read-out: MAX_MED); 101% in data set [1] (read-out: tp (winning model)); 0.625% in data set [3] (setting [7]); -1.03% in data set [3] (setting [8]). Besides, the values for the Emax (with RUES2-GLR cells; in data set [4]) were 92.5% and 6.38%, respectively. Moreover, the AC50 in data set [1] was 13.2 µM; in data set [4] it was 12.9 µM. In addition, the “Hit Call” value in data set [1] is “Positive”. The “DevTox ACC” value in data set [1] amounted to 9.385 µM. In addition, the “DevTox-GLR Endo ACC” value in data set [1] is reported as 9.38 µM. For the same compound, the entries for the “HIT−CALL” value in data set [1] and in data set [3] were 1 and 0, respectively. Besides, the “quickPredict TI” value in data set [2] is given as 72.7 µM. For the same compound, the “Cell Count ACC” value in the data set with RUES2-GLR cells (human, 48 h) turned out to be 8.702 µM. In addition, the “DevTox-GLR Endo CC” value in the data set on RUES2-GLR cells (human, 48 h) turned out to be 8.70 µM. In addition, the MAX_MEAN in data set [4] is recorded as 6.48 Percent Activity. This compound also gave an MAX_MED in data set [4] of 6.65 Percent Activity.
